From patent US8501770B2 (ArQule, Inc., priority 2009, dated 2013) come the findings set out here.

Structures are written as SMILES. Counter-ions that a name gives are not always drawn.

The first assay deals with Full-length inactive AKT1 (Homo sapiens, UniProt P31749). Kind of assay: Inactive Akt Alpha Screen Assay. It is filed as biochemical. The note with it: AlphaScreen assay (values not marked with *); read-out: Akt1 IC50, (AlphaScreen) (μM) (or if marked with “*” HTRF assay). As for the experimental part: AKT1 activity was assayed using the GSK3-derived biotinylated peptide substrate, crosstide (biotin-[…]), and AlphaScreen™ (Amplified Luminescent Proximity Homogeneous Assay) technology. AKT1 activation was achieved by the addition of the activating kinases PDK1 and MAPKAPK2, lipid vesicles, and ATP. The extent of peptide phosphorylation was determined using a phospho-AKT substrate antibody and acceptor beads conjugated to Protein A and donor beads conjugated to streptavidin that bind to the biotin on the peptide. Excitation of the donor beads converted ambient oxygen to excited singlet oxygen which, when in close proximity to acceptor beads, reacted with acceptor beads resulting in signal amplification.
Sequence of Full-length inactive AKT1 (P31749 whole entry): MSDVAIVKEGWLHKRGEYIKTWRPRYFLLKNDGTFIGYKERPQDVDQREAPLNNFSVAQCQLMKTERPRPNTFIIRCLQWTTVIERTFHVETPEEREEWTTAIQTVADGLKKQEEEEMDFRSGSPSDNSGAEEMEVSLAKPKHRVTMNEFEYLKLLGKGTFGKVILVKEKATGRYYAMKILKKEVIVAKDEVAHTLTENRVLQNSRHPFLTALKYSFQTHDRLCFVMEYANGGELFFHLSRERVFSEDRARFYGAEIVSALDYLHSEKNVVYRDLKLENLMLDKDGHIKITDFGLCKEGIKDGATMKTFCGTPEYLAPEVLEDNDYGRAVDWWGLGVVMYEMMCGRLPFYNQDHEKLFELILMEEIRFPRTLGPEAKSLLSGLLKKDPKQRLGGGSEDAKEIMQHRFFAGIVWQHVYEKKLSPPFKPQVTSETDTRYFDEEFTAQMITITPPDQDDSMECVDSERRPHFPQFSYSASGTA
Assay plates were incubated for 90 minutes at room temperature in the dark, and the plates were read on a Perkin Elmer Envision Multilabel plate reader (excitation wavelength: […], emission wavelength: 570 nm).
(In general: Alpha assays give light when donor and acceptor beads are brought close together.)
In the case of `Nc1ncccc1-c1nc2ccc(-c3ccc4[nH]ccc4c3)nc2n1-c1ccc(C2(N)CCC2)cc1` [Example 452, 3-{3-[4-(1-aminocyclobutyl)phenyl]-5-(1H-indol-5-yl)-3H-imidazo[4,5-b]pyridin-2-yl}pyridin-2-amine], the IC50 (as a rule, the midpoint of a concentration-inhibition curve) turned out to be 0.0041 µM.

For `Nc1ncccc1-c1nc2ccc(-c3cccc(N4CCC4)c3)nc2n1-c1ccc(C2(N)CCC2)cc1` [Example 457, 3-{3-[4-(1-aminocyclobutyl)phenyl]-5-(3-azetidin-1-ylphenyl)-3H-imidazo[4,5-b]pyridin-2-yl}pyridin-2-amine], the IC50 was 0.0093 µM.

Take `Nc1ncccc1-c1nc2ccc(-c3ccc(O)c(F)c3)nc2n1-c1ccc(C2(N)CCC2)cc1` [Example 434, 4-{3-[4-(1-aminocyclobutyl)phenyl]-2-(2-aminopyridin-3-yl)-3H-imidazo[4,5-b]pyridin-5-yl}-2-fluorophenol]: the IC50 came out at 0.005 µM.

Consider `Nc1ncccc1-c1nc2ccc(-c3cccc(N4CCOCC4=O)c3)nc2n1-c1ccc(C2(N)CCC2)cc1` [Example 466, 4-(3-{3-[4-(1-aminocyclobutyl)phenyl]-2-(2-aminopyridin-3-yl)-3H-imidazo[4,5-b]pyridin-5-yl}phenyl)morpholin-3-one hydrochloride], for which the IC50 worked out at 0.0035 µM.

The assay is the same for the next values; noted with them: values not marked with "*": AlphaScreen assay; read-out: Akt1 IC50, (AlphaScreen).
For the compound `Nc1ncccc1-c1nc2cccnc2n1-c1ccc(CNC(=O)c2cccs2)cc1` [Example 48], the IC50 was 0.196 µM.

In the case of `COc1ccc2nc(-c3cccnc3N)n(-c3ccc(C(C)(C)C)cc3)c2n1` [Example 8], the IC50 was 20.6 µM.

As to `Nc1ncccc1-c1nc2cc(-c3ccsc3)cnc2n1-c1ccc(CNC(=O)c2ccccc2)cc1` [Example 137, N-{4-[2-(2-aminopyridin-3-yl)-6-thiophen-3-yl-3H-imidazo[4,5-b]pyridin-3-yl]benzyl}benzamide], the IC50 was 0.05 µM.

Regarding `Nc1ncccc1-c1nc2cc(Br)cnc2n1-c1ccc(CNS(=O)(=O)c2cccc(Cl)c2)cc1` [Example 156, N-{4-[2-(2-aminopyridin-3-yl)-6-bromo-3H-imidazo[4,5-b]pyridin-3-yl]benzyl}-3-chlorobenzenesulfonamide], the IC50 came out at 1.2 µM.

As to `CC(C)(C)C(=O)NCc1ccc(-n2c(-c3cccnc3N)nc3cccnc32)cc1` [Example 52, N-{4-[2-(2-aminopyridin-3-yl)-3H-imidazo[4,5-b]pyridin-3-yl]benzyl}-2,2-dimethylpropanamide], the concentration for half-maximal inhibition (IC50) was 2.77 µM.

As for `Nc1ncccc1-c1nc2cccnc2n1-c1ccc(CNS(=O)(=O)c2cccnc2)cc1` [Example 94], the IC50 was determined as 0.142 µM.

Staying with this assay, now noted: values not marked with "*"; read-out: Akt1 IC50, (AlphaScreen).
Consider `Cc1cccc(C(=O)NCc2ccc(-n3c(-c4cccnc4N)nc4cc(C)cnc43)cc2)c1` [Example 216, N-(4-(2-(2-aminopyridin-3-yl)-6-methyl-3H-imidazo[4,5-b]pyridin-3-yl)benzyl)-3-methylbenzamide], for which the IC50 stood at 0.077 µM.

With `Cc1cnc2c(c1)nc(-c1cccnc1N)n2-c1ccc(CNC(=O)c2ccccc2Cc2ccccc2)cc1` [Example 225, N-(4-(2-(2-aminopyridin-3-yl)-6-methyl-3H-imidazo[4,5-b]pyridin-3-yl)benzyl)-2-benzylbenzamide], the IC50 was 0.011 µM.

`Nc1ncccc1-c1nc2ccc(Cl)nc2n1-c1ccc(CNC(=O)c2cccc(F)c2)cc1` [Example 203, N-(4-(2-(2-aminopyridin-3-yl)-5-chloro-3H-imidazo[4,5-b]pyridin-3-yl)benzyl)-3-fluorobenzamide]: the IC50 is 0.081 µM.

Regarding `Cc1cnc2c(c1)nc(-c1cccnc1N)n2-c1ccc(CNC(=O)c2ccc(F)cc2)cc1` [Example 228, N-(4-(2-(2-aminopyridin-3-yl)-6-methyl-3H-imidazo[4,5-b]pyridin-3-yl)benzyl)-4-fluorobenzamide], the IC50 worked out at 0.24 µM.

On to `Nc1ncccc1-c1nc2cc(C(F)(F)F)cnc2n1-c1ccc(CNC(=O)c2ccc(Br)cc2)cc1` [Example 187, N-{4-[2-(2-aminopyridin-3-yl)-6-(trifluoromethyl)-3H-imidazo[4,5-b]pyridin-3-yl]benzyl}-4-bromobenzamide], for which the IC50 worked out at 2.1 µM.

`Nc1ncccc1-c1nc2ccc(-c3cccc(C(=O)N4CCOCC4)c3)nc2n1-c1ccc(C2(N)CCC2)cc1` [Example 388, (3-(3-(4-(1-aminocyclobutyl)phenyl)-2-(2-aminopyridin-3-yl)-3H-imidazo[4,5-b]pyridin-5-yl)phenyl)(morpholino)methanone]: the IC50 worked out at 0.003 µM.

For `CC(=O)Nc1ccc(C(=O)NCc2ccc(-n3c(-c4cccnc4N)nc4cc(C)cnc43)cc2)cc1` [Example 220, 4-acetamido-N-(4-(2-(2-aminopyridin-3-yl)-6-methyl-3H-imidazo[4,5-b]pyridin-3-yl)benzyl)benzamide], the IC50 amounted to 0.054 µM.

As for `CC(C)(C)OC(=O)NCc1ccc(-n2c(-c3cccnc3N)nc3ccc(-c4ccncc4)nc32)cc1` [Example 208, tert-butyl 4-(2-(2-aminopyridin-3-yl)-5-(pyridin-4-yl)-3H-imidazo[4,5-b]pyridin-3-yl)benzylcarbamate], the IC50 was found to be 0.18 µM.

Consider `Cc1cnc2c(c1)nc(-c1cccnc1N)n2-c1ccc(CNC(=O)Cc2ccccc2)cc1` [Example 219, N-(4-(2-(2-aminopyridin-3-yl)-6-methyl-3H-imidazo[4,5-b]pyridin-3-yl)benzyl)-2-phenylacetamide], for which the IC50 stood at 0.23 µM.

On to `CCCOc1cccc(-c2ccc3nc(-c4cccnc4N)n(-c4ccc(C5(N)CCC5)cc4)c3n2)c1` [Example 422, 3-{3-[4-(1-aminocyclobutyl)phenyl]-5-(3-propoxyphenyl)-3H-imidazo[4,5-b]pyridin-2-yl}pyridin-2-amine], for which the IC50 was 0.011 µM.

Regarding `Nc1ncccc1-c1nc2cc(Br)cnc2n1-c1ccc(NC(=O)c2ccccc2)cc1` [Example 304, N-(4-(2-(2-aminopyridin-3-yl)-6-bromo-3H-imidazo[4,5-b]pyridin-3-yl)phenyl)benzamide], the IC50 was 0.02 µM.

As for `Nc1ncccc1-c1nc2ccc(-c3ccc(CO)cc3)nc2n1-c1ccc(C2(N)CCC2)cc1` [Example 383, (4-(3-(4-(1-aminocyclobutyl)phenyl)-2-(2-aminopyridin-3-yl)-3H-imidazo[4,5-b]pyridin-5-yl)phenyl)methanol], the IC50 was 0.0037 µM.

In the case of `Cc1cnc2c(c1)nc(-c1cccnc1N)n2-c1ccc(CNC(=O)C2Cc3ccccc3C2)cc1` [Example 215, N-(4-(2-(2-aminopyridin-3-yl)-6-methyl-3H-imidazo[4,5-b]pyridin-3-yl)benzyl)-2,3-dihydro-1H-indene-2-carboxamide], the IC50 stood at 0.73 µM.

`Cc1ccc2nc(-c3cccnc3N)n(-c3ccc(CNC(=O)c4ccc(C(C)C)cc4)cc3)c2n1` [Example 245, N-(4-(2-(2-aminopyridin-3-yl)-5-methyl-3H-imidazo[4,5-b]pyridin-3-yl)benzyl)-4-isopropylbenzamide]: the IC50 amounted to 0.014 µM.

Consider `CN(C)c1ccc(-c2ccc3nc(-c4cccnc4N)n(-c4ccc(C5(N)CCC5)cc4)c3n2)cc1` [Example 410, 3-{3-[4-(1-aminocyclobutyl)phenyl]-5-[4-(dimethylamino)phenyl]-3H-imidazo[4,5-b]pyridin-2-yl}pyridin-2-amine], for which the IC50 came out at 0.0097 µM.

Regarding `CC(=O)Nc1cccc(-c2cnc3c(c2)nc(-c2cccnc2N)n3-c2ccc(CNC(=O)c3ccccc3)cc2)c1` [Example 174, N-(4-{6-[3-(acetylamino)phenyl]-2-(2-aminopyridin-3-yl)-3H-imidazo[4,5-b]pyridin-3-yl}benzyl)benzamide], the IC50 was determined as 0.038 µM.

Turning to `NC(=O)c1ccc(-c2ccc3nc(-c4cccnc4N)n(-c4ccc(C5(N)CCC5)cc4)c3n2)cc1` [Example 387, 4-(3-(4-(1-aminocyclobutyl)phenyl)-2-(2-aminopyridin-3-yl)-3H-imidazo[4,5-b]pyridin-5-yl)benzamide], the IC50 was determined as 0.0087 µM.

As for `Nc1ncccc1-c1nc2cc(-c3ccccc3)cnc2n1-c1ccc(C2(N)CCC2)cc1` [Example 358, 3-(3-(4-(1-aminocyclobutyl)phenyl)-6-phenyl-3H-imidazo[4,5-b]pyridin-2-yl)pyridin-2-amine], the IC50 amounted to 0.055 µM.

Take `Cc1cnc2c(c1)nc(-c1cccnc1N)n2-c1ccc(CNC(=O)c2ccc(Cl)c(C)c2)cc1` [Example 272, N-(4-(2-(2-aminopyridin-3-yl)-6-methyl-3H-imidazo[4,5-b]pyridin-3-yl)benzyl)-4-chloro-3-methylbenzamide]: the IC50 worked out at 0.21 µM.

With `Nc1ncccc1-c1nc2ccc(-c3cccnc3)nc2n1-c1ccc(CNC(=O)c2ccccc2)cc1` [Example 201, N-(4-(2-(2-aminopyridin-3-yl)-5-(pyridin-3-yl)-3H-imidazo[4,5-b]pyridin-3-yl)benzyl)benzamide], the IC50 amounted to 0.032 µM.

Turning to `Cc1ccc2cc(C(=O)NCc3ccc(-n4c(-c5cccnc5N)nc5cc(-c6cccnc6)cnc54)cc3)ccc2n1` [Example 244, N-(4-(2-(2-aminopyridin-3-yl)-6-(pyridin-3-yl)-3H-imidazo[4,5-b]pyridin-3-yl)benzyl)-2-methylquinoline-6-carboxamide], the IC50 stood at 0.022 µM.

With `Nc1ncccc1-c1nc2ccc(-c3ccc4c(c3)OCCO4)nc2n1-c1ccc(CNC(=O)c2cccc(F)c2)cc1` [Example 332, N-(4-(2-(2-aminopyridin-3-yl)-5-(2,3-dihydro-benzo[b][1,4]dioxin-6-yl)-3H-imidazo[4,5-b]pyridin-3-yl)benzyl)-3-fluorobenzamide], the IC50 was 0.16 µM.

As for `Nc1ncccc1-c1nc2ccc(-c3ccncc3)nc2n1-c1ccc(CNC(=O)c2cccc(F)c2)cc1` [Example 334, N-(4-(2-(2-aminopyridin-3-yl)-5-(pyridin-4-yl)-3H-imidazo[4,5-b]pyridin-3-yl)benzyl)-3-fluorobenzamide], the IC50 turned out to be 0.036 µM.
